The target in this assay is T1, hKv1.5 channel (Homo sapiens, UniProt P22460).
T1 construct: expressed in transfected cells; host or cells: mouse Ltk- cells (pMSVneo vector, G418 selection)
The assay is described as follows: Block of hKv1.5 channel currents expressed in Ltk-cells (whole cell patch clamp). Format: cell-based. On the procedure:
Cell line selectively expressing a specific cardiac K^+ channel gene was prepared according to the method described in the thesis (Yang, et al., Inhibition of cardiac potassium currents by the vesnarinone analog OPC-18790: comparison with quinidine and dofetilide. J Pharmacol Exp Ther. 1997, 280: 1170-1175; Kwak, et al., Phosphorylation is required for alteration of Kv1.5 K^+ channel function by the Kvbeta 1.3 subunit. J Biol Chem 1999, 274: 25355-25361).
First, cDNAs for human cardiac K^+ channel genes such as hKv 1.5 and HERG were subcloned into pMSVneo which contain dexamethasone-inducible murine mammary tumor virus promoter controlling transcription of the inserted cDNA and a gene conferring neomycin resistance driven by the SV40 early promotor. The cDNA-containing expression vector was transfected into mouse Ltk-cells with lipofectamine. After 24 hours, the cells selection with […] of G418 was performed for 2 weeks or until discrete foci formed. Individual foci were isolated, maintained in 0.25 μg/ml of G418, and screened by Norhtern analysis and electrophysiological analysis. Transfected cells were cultured in Dulbeco's modified Eagle medium (DMEM) supplemented with 10% horse serum and 0.25 μg/ml of G418, under 5% CO2. Transiently transfected cells were cultured in DMEM media supplemented with only 10% horse serum, differently from stable cell lines.
Currents in human atrial myocytes and cell lines were recorded by using the whole cell configuration of the gigaohm-seal patch clamp techniques (Kwak, et al., Phosphorylation is required for alteration of Kv1.5 K^+ channel function by the Kvbeta 1.3 subunit. J Biol Chem 1999, 274: 25355-25361). First, electrical signals were amplified with a patch clamp amplifier (Axon Instruments, Axopatch-1D, Foster, USA). Currents were digitized by a signal converter (Digidata 1200, Axon Instruments) and stored on the hard disk of a computer. The micropipette with a resistance of 1˜2MΩ (Kimax-51, 1.5=14 1.8×10 mm) for current recording, was pulled out by a 2-stage pipette puller (Narishige, PP-83). The intracellular pipette-filling solution for whole cell mode contained 100 mM KCl, 10 mM HEPES, 5 mM K4BAPTA, 5 mM K2ATP and 1 mM MgCl2 (pH 7.2). The extracellular solution contained 130 mM NaCl, 4 mM KCl, 1.8 mM CaCl2, 1 mM MgCl2, 10 mM HEPES and 10 mM glucose (pH 7.35).
The current traces were recorded with a depolarizing pulse of +50 mV from a holding potential of −80 mV, followed by a repolarizing pulse of −50 mV in the Ltk-cells. To observe the concentration-dependent block of hKv1.5 channel currents by each compound, steady-state currents taken at the end of the depolarizing pulse of +50 mV were normalized to the control obtained in the absence of each compound
FIG. 1e is concentration-response curves showing the relative steady-state currents obtained at the end of the depolarizing pulse against the concentration of each compound. Data were fitted with a Hill equation.
IC50 values (50% inhibitory concentration, μM) of compounds 1˜14 on the hKv1.5 channel currents were determined, and Hill values were calculated from the concentration-response curves of the respective compounds using the Hill equation.
On the technique in general: The patch-clamp technique gives a direct electrical read-out from membranes.

One may read the IC50 as the concentration that gives 50% inhibition.

T1 sequence (P22460 whole entry): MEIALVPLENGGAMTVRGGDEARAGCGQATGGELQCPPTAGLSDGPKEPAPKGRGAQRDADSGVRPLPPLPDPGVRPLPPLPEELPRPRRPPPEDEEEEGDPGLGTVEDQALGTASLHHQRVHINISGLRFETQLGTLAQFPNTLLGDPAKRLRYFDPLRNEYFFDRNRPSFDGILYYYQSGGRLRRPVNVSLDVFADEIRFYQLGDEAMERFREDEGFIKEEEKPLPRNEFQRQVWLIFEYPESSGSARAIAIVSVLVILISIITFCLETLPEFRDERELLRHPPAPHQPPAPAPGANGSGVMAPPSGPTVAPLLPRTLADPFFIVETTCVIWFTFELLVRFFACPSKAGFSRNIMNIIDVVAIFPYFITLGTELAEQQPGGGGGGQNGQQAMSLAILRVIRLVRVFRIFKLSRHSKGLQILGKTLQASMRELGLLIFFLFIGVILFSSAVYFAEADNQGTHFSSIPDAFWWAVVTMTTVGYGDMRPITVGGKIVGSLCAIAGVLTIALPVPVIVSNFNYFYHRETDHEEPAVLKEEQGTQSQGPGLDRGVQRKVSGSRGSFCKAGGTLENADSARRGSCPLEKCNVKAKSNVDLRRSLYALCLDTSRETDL

For the compound `CN1Cc2c(ccc3c2OCO3)[C@@H]2[C@H]1c1cc3c(cc1C[C@@H]2O)OCO3` [Compound 1, [5bR-(5bα,6β,12bα)]-5b,6,7,12b,13, 14-hexahydro-13-methyl[1,3]benzodioxolo[5,6c]-1,3-dioxolo[4,5-i]phenanthridin-6-ol], where the note is “from concentration-response curves using the Hill equation”, the Hill value is listed as 1.07. Besides, for the setting “hKv1.5 expressed in Ltk-cells, FIGS. 1a to 1e”, the “type of hKv1.5 block” value was “predominantly blocked the open ion channels”. Moreover, the “effect on the hKv1.5 channel currents” value (hKv1.5 expressed in Ltk-cells, FIGS. 1a to 1d) is recorded as “concentration-dependent inhibitory effects”. The compound further yielded an IC50 (hKv1.5 expressed in Ltk-cells, steady-state current at end of +50 mV depolarizing pulse, holding -80 mV) of 11.5 ± 3.1 µM.

Source of the values: US6887882B2, “Pharmaceutical compositions comprising chelidonine or derivatives thereof” (priority 2002, dated 2005).
